Experimental findings from patent US7494980B2, “Antimicrobial peptide and methods of use thereof” (The United States of America as represented by the …, priority 2003, dated 2009) are described below.

In test [1] the test system is Actinomyces israelii ATCC 10049. Briefly: In vitro susceptibility (broth microdilution MIC, MBC by spiral-plating). In kind it is cell-based. The note with it: 24-48 h. From the text: (§1) Strains used in Examples 3-6 included ATCC and laboratory strains of different oral bacteria. These included: Actinomyces naeslundii strain T14V-J1, Actinomyces israelii ATCC 10049, Streptococcus mutans strains LT 11 and ATCC 25175, Streptococcus sobrinus ATCC 33478, Streptococcus gordonii strains DL1 and ATCC 51656, Streptococcus sanguis strains SK36 and ATCC 10556, Streptococcus salivarius ATCC 9222, Streptococcus oralis strains 34 and ATCC 35037, Lactobacillus salivarius ATCC 29602, Lactobacillus acidophilus ATCC 4357, and Actinobacillus actinomycetemcomitans ATCC 43718. S. mutans strain LT 11 was kindly provided by Lin Tao, University of Illinois at Chicago, Ill. S. gordonii DLI, S. sanguis SK36, and S. oralis 34 were provided by John Cisar, National Institute of Dental and Craniofacial Research, NIH, Bethesda, Md.
(§2) Todd-Hewitt broth (THB), brain heart infusion (BHI) broth, Todd-Hewitt agar (THA), trypticase soy agar (TSA), lactobacilli MRS (MRS) broth, Actinomyces broth and Mueller-Hinton broth (MHB) were purchased from Becton Dickinson. Blood agar plates (BAP) were prepared by supplementing TSA with 5% sheep blood (PML Microbiologicals). All cultures, except for Actinobacillus actinomycetemcomitans, S. mitis and Actinomyces israelii, were grown at 37° C. in room air. Actinobacillus actinomycetemcomitans cultures were grown on BAP or in MHB supplemented with 15 μg haemin ml^−1 (Sigma), 15 μg β-nicotinamide adenine dinucleotide (NAD) ml^−1 (Sigma) and 5% yeast extract (Becton Dickinson) at 37° C. in 5% CO2. S. mitis was grown on BAP or in BHI broth at 37° C. in 5% CO2. Actinomyces israeilli was grown anaerobically in an anaerobic chamber (Coy Laboratory Products) in a 5% CO2/10% H2/85% N2 atmosphere.
(§3) MICs were determined as described by Fuchs et al. (1998) with a slight modification. Procedures were based on the National Committee for Clinical Laboratory Standards broth microdilution method. MHB was used as the main assay medium for most of the tested organisms. Freshly grown cultures at exponential phase were used as the inoculum. Bacteria were centrifuged at 4000 r.p.m. for 15 min at 4° C., suspended in 2× concentrated medium and adjusted to 4×106 c.f.u ml−1 in 2× concentrated medium. Aqueous peptide solution (100 μl) was added to each well of a 96-well, flat-bottomed plate (Becton Dickinson). The peptide solution was serially diluted (twofold) with sterile distilled water in the wells, with final peptide concentrations ranging from 3.13 to 200 μg ml−1. After dispensing 100 μl aliquots of bacterial suspension into the wells, the 96-well plates were incubated at 37° C. for 24-48 h in room air, CO2 or anaerobically. The MIC was defined as the lowest concentration of the peptide that prevented visible turbidity, as measured at 600 nm by using an ELISA reader (Titertek Multiskan MCC/340). […] Minimum bactericidal concentrations (MBCs) were determined by spiral-plating (Spiral Plater Autoplate 4000; Spiral Biotech) 50 μl from each clear well (≧MIC) onto BAP.
For orientation: Dilution methods test growth across graded concentrations, often in twofold steps.

A further test concerns S. mitis ATCC. Described as above. The conditions noted are these: 24-48 h. In kind it is cell-based.
From the text: as §1, §2, §3

The subject of test [2] is Actinobacillus actinomycetemcomitans ATCC 43718. Nature of the test: Bactericidal assay (log reduction in viable counts). It counts as cell-based.
From the text: as §1
The bactericidal assay was performed according to procedures described by Miyasaki et al. (1997, 1998) with a slight modification. […] Susceptibility was determined by examining the log reduction in viability counts of organisms that had been exposed to different concentrations of KSL. […] Bactericidal activity was also expressed as the 99% effective dose (ED99), which is the concentration of the antimicrobial decapeptide at which there is a 2-log or more reduction in c.f.u. […]
In addition to the determinations of MICs and MBCs of KSL, log reductions in viable counts of selected oral bacteria caused by KSL were also determined. […] With the exception of Actinobacillus actinomycetemcomitans, for which the assays were performed in 0.01% BHI, bactericidal action of KSL was determined in isotonic HBSS after incubation with the targeted bacteria for 1 h at 37° C. KSL at 6.25 μg ml^−1, which was determined to be the 99% effective dose (ED99), caused more than 2 log reductions in viable counts of the organisms tested, which included L. salivarius ATCC 29602 (FIG. 3a), S. mutans ATCC 25175^T (FIG. 3b), S. gordonii ATCC 51656 (FIG. 3c), and Actinobacillus actinomycetemcomitans ATCC 43718 (FIG. 3d).

The test system of the next test is L. salivarius ATCC 29602. Nature of the test: In vitro susceptibility (broth microdilution MIC, MBC by spiral-plating). It counts as cell-based, Lactobacillus salivarius. The conditions noted are these: 24-48 h.
From the text: as §1, with “Md. […]” for “Md.”
(§4) MICs were determined as described by Fuchs et al. (1998) with a slight modification. […] The MIC was defined as the lowest concentration of the peptide that prevented visible turbidity, as measured at 600 nm by using an ELISA reader (Titertek Multiskan MCC/340). […] Minimum bactericidal concentrations (MBCs) were determined by spiral-plating (Spiral Plater Autoplate 4000; Spiral Biotech) 50 μl from each clear well (≧MIC) onto BAP.

Another test relates to S. oralis ATCC 35037. The description is as above. The note with it: 24-48 h. It counts as cell-based, Streptococcus oralis.
From the text: as §1, with “Md. […]” for “Md.”
as §4

Ends that are not written are not given here.

By MIC is commonly meant the least concentration at which growth counts as inhibited. The low end stands for inhibition by little substance, the high end for a need for much substance. The term MBC denotes the smallest concentration meeting the test's criterion for killing. Read a high MBC as less potent killing. On to “KKVVFKVKFK-NH2 [KSL, lys-lys-val-val-phe-lys-val-lys-phe-lys]”, for which the MIC is 6.25 µg/mL in test [1] (20% Actinomyces broth, anaerobic, 4 × 10^6 cells ml^−1, 37° C.); 25 µg/mL against S. mitis ATCC (BHI, 5% CO2, 4 × 10^6 cells ml^−1, 37° C.); 3.13 µg/mL in the test on L. salivarius ATCC 29602 (10% MRS, 4 × 10^6 cells ml^−1, 37° C.); 100 µg/mL with S. oralis ATCC 35037 (MHB, 4 × 10^6 cells ml^−1, 37° C.). Besides, the minimum bactericidal concentration (MBC) stood at 12.5 µg/mL in test [1] (clear MIC wells plated on BAP), 50 µg/mL with S. mitis ATCC (clear MIC wells plated on BAP), 12.5 µg/mL in the test with L. salivarius ATCC 29602 (clear MIC wells plated on BAP) and 200 µg/mL against S. oralis ATCC 35037 (clear MIC wells plated on BAP). Further, in test [2] (6.25 μg ml^−1, 0.01% BHI, FIG. 3d), the “log reduction in viable counts” value is on record as “more than 2 log”. Moreover, the “ED99 (99% effective dose)” value in test [2] (0.01% BHI, 1 h at 37° C.) stood at 6.25 µg/mL. For the same substance, in test [2] (concentrations of <10 μg ml^−1), the reduction in viability is on record as more than 3 logs.
